Data reported in paper PMC9133015 (Nature Communications, 2022).
“And” between values parts separate entries of the source, which are not always exact repeats. Identical values can stand only once. Like-named read-outs stand apart in the source and are kept apart here.

Experiments:
Assay in all cases: Kinase inhibitor specificity profiling (Reaction Biology Corporation)
Assay type in all cases: biochemical
Parameters in all cases: % Enzyme Activity (relative to DMSO controls): concentration or dose not given beside the values
[1] = target: T1, panel of 370 protein kinases (Homo sapiens, UniProt O75385); conditions: kinase ULK1
T1 construct: purchased Reaction Biology Corporation (assay service)

[2] = target: T2, panel of 370 protein kinases (Homo sapiens, UniProt O94804); conditions: kinase LOK/STK10
T2 construct: purchased Reaction Biology Corporation (assay service)

[3] = target: T3, panel of 370 protein kinases (Homo sapiens, UniProt P00533); conditions: kinase EGFR
T3 construct: purchased Reaction Biology Corporation (assay service)

[4] = target: T4, panel of 370 protein kinases (Homo sapiens, UniProt P20794); conditions: 2 h, kinase MAK; read-out: % Enzyme Activity (relative to DMSO controls)
T4 construct: purchased Reaction Biology Corporation (assay service)

[5] = target: T5, panel of 370 protein kinases (Homo sapiens, UniProt P24723); conditions: 2 h, kinase PKCeta; read-out: % Enzyme Activity (relative to DMSO controls)
T5 construct: purchased Reaction Biology Corporation (assay service)

[6] = target: T6, panel of 370 protein kinases (Homo sapiens, UniProt P25098); conditions: 2 h, kinase GRK2; read-out: % Enzyme Activity (relative to DMSO controls)
T6 construct: purchased Reaction Biology Corporation (assay service)

[7] = target: T7, panel of 370 protein kinases (Homo sapiens, UniProt P43405); conditions: kinase SYK
T7 construct: purchased Reaction Biology Corporation (assay service)

[8] = target: T8, panel of 370 protein kinases (Homo sapiens, UniProt P51812); conditions: 2 h, kinase RSK2; read-out: % Enzyme Activity (relative to DMSO controls)
T8 construct: purchased Reaction Biology Corporation (assay service)

[9] = target: T9, panel of 370 protein kinases (Homo sapiens, UniProt Q00535); conditions: 2 h, read-out: % Enzyme Activity (relative to DMSO controls)
T9 construct: purchased Reaction Biology Corporation (assay service)

[10] = target: T10, panel of 370 protein kinases (Homo sapiens, UniProt Q00536); conditions: 2 h, kinase CDK16/cyclin Y (PCTAIRE); read-out: % Enzyme Activity (relative to DMSO controls)
T10 construct: purchased Reaction Biology Corporation (assay service)

[11] = target: T11, panel of 370 protein kinases (Homo sapiens, UniProt Q13233); conditions: 2 h, kinase MEKK1; read-out: % Enzyme Activity (relative to DMSO controls)
T11 construct: purchased Reaction Biology Corporation (assay service)

[12] = target: T12, panel of 370 protein kinases (Homo sapiens, UniProt Q13464); conditions: 2 h, kinase ROCK1; read-out: % Enzyme Activity (relative to DMSO controls)
T12 construct: purchased Reaction Biology Corporation (assay service)

[13] = target: T13, panel of 370 protein kinases (Homo sapiens, UniProt Q13976); conditions: 2 h, kinase PKG1a; read-out: % Enzyme Activity (relative to DMSO controls)
T13 construct: purchased Reaction Biology Corporation (assay service)

[14] = target: T14, panel of 370 protein kinases (Homo sapiens, UniProt Q14012); conditions: 2 h, kinase CAMK1a; read-out: % Enzyme Activity (relative to DMSO controls)
T14 construct: purchased Reaction Biology Corporation (assay service)

[15] = target: T15, panel of 370 protein kinases (Homo sapiens, UniProt Q8IVH8); conditions: kinase GLK/MAP4K3
T15 construct: purchased Reaction Biology Corporation (assay service)

[16] = target: T16, panel of 370 protein kinases (Homo sapiens, UniProt Q8IVT5); conditions: 2 h, kinase KSR1; read-out: % Enzyme Activity (relative to DMSO controls)
T16 construct: purchased Reaction Biology Corporation (assay service)

[17] = target: T17, panel of 370 protein kinases (Homo sapiens, UniProt Q8TF76); conditions: 2 h, kinase Haspin; read-out: % Enzyme Activity (relative to DMSO controls)
T17 construct: purchased Reaction Biology Corporation (assay service)

[18] = target: T18, panel of 370 protein kinases (Homo sapiens, UniProt Q96RG2); conditions: 2 h, kinase PASK; read-out: % Enzyme Activity (relative to DMSO controls)
T18 construct: purchased Reaction Biology Corporation (assay service)

[19] = target: T19, panel of 370 protein kinases (Homo sapiens, UniProt Q9H3Y6); conditions: 2 h, kinase SRMS; read-out: % Enzyme Activity (relative to DMSO controls)
T19 construct: purchased Reaction Biology Corporation (assay service)

[20] = target: T20, panel of 370 protein kinases (Homo sapiens, UniProt Q9UK32); conditions: kinase RSK4
T20 construct: purchased Reaction Biology Corporation (assay service)

[21] = target: T21, panel of 370 protein kinases (Homo sapiens, UniProt Q9UKI8); conditions: 2 h, kinase TLK1; read-out: % Enzyme Activity (relative to DMSO controls)
T21 construct: purchased Reaction Biology Corporation (assay service)

[22] = target: T22, panel of 370 protein kinases (Homo sapiens, UniProt Q9Y2U5); conditions: 2 h, kinase MEKK2; read-out: % Enzyme Activity (relative to DMSO controls)
T22 construct: purchased Reaction Biology Corporation (assay service)

T15 sequence (Q8IVH8 whole entry): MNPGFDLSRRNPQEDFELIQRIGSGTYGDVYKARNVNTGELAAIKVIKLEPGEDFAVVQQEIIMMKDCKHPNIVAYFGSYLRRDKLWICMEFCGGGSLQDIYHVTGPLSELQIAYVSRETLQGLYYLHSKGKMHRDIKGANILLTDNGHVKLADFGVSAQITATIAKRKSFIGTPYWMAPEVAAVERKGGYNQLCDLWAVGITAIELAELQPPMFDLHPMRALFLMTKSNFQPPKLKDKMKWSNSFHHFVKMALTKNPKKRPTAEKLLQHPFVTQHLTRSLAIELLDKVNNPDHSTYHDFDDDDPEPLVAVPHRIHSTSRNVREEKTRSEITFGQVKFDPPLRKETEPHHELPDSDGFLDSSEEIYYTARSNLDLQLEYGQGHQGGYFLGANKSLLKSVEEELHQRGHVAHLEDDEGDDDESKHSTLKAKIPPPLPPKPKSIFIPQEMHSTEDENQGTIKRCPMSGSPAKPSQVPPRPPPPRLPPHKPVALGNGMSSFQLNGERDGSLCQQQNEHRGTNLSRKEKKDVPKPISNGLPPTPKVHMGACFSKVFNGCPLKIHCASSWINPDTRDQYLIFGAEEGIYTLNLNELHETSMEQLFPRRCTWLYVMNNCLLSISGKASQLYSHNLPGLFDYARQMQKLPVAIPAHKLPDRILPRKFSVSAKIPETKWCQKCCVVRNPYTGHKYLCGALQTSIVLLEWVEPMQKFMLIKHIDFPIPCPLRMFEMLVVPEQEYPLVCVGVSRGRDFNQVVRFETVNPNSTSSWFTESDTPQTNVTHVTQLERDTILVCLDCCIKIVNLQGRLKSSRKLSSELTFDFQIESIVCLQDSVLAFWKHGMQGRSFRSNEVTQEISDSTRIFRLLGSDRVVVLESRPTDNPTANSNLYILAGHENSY
T1 sequence (O75385 whole entry): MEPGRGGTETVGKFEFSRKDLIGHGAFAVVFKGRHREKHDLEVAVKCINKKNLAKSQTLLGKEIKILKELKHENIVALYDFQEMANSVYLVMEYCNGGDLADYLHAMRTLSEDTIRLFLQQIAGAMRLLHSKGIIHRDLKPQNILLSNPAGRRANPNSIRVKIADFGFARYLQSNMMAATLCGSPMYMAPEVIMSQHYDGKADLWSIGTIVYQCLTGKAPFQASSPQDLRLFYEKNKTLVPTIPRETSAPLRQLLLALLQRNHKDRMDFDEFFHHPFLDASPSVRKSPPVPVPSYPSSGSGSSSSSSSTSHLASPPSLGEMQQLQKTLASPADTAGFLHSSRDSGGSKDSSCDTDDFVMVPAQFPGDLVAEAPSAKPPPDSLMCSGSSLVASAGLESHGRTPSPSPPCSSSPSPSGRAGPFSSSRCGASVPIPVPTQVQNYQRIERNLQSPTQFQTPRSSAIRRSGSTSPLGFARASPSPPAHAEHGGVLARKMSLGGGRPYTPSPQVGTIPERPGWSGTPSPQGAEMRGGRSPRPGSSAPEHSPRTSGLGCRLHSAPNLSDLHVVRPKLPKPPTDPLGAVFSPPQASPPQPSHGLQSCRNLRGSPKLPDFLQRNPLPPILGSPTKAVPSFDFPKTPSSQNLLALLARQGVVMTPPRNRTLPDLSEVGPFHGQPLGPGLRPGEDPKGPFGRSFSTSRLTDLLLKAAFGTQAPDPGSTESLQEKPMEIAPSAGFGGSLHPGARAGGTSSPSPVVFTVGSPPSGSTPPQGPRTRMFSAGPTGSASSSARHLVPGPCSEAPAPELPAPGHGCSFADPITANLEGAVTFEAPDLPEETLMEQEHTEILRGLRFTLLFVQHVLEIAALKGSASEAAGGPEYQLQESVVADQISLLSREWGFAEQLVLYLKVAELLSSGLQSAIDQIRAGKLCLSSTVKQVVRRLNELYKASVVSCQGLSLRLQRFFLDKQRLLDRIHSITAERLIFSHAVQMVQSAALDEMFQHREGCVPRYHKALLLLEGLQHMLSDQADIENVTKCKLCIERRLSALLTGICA
T20 sequence (Q9UK32 whole entry): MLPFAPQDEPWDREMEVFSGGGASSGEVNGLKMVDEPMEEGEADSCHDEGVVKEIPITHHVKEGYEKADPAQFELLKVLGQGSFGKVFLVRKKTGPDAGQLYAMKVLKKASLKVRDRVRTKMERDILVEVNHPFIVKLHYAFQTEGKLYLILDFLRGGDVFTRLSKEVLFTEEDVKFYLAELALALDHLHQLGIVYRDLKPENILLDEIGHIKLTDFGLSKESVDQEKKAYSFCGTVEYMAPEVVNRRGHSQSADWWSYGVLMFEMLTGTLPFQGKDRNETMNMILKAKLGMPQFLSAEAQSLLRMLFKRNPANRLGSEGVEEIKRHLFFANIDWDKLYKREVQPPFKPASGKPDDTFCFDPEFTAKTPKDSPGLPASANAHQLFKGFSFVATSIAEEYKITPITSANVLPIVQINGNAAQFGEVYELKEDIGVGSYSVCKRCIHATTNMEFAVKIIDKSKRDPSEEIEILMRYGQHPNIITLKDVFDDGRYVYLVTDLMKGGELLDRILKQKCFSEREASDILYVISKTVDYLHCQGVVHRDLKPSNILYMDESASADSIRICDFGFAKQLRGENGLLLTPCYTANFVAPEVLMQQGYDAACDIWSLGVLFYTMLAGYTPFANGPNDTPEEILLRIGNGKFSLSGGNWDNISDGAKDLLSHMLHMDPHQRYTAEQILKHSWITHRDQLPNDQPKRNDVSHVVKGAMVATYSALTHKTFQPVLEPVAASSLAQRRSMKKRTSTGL
T2 sequence (O94804 whole entry): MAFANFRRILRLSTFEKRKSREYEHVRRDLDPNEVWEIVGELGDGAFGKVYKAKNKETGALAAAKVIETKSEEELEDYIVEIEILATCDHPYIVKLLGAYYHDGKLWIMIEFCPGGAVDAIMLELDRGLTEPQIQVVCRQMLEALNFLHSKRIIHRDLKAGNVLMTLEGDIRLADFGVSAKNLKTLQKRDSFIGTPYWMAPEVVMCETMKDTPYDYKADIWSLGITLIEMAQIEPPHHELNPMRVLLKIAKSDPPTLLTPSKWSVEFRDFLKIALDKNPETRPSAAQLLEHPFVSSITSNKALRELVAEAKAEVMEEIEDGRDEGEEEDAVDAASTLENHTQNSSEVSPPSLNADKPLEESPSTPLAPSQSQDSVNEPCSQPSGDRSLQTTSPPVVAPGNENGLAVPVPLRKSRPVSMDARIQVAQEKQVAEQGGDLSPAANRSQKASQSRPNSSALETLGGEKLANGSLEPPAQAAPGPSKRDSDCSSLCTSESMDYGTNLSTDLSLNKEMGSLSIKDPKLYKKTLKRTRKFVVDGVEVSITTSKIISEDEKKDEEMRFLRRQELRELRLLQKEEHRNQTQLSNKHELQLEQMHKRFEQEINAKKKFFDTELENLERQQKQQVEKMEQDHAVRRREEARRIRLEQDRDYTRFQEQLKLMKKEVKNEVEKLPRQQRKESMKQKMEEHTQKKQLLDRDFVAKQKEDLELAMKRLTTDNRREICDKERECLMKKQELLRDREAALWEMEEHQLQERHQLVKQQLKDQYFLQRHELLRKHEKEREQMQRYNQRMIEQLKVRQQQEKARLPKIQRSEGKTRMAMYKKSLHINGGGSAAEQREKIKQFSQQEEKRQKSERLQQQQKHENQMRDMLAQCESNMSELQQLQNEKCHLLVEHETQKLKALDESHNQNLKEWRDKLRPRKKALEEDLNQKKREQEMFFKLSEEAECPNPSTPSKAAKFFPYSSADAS
T3 sequence (P00533 25-1210): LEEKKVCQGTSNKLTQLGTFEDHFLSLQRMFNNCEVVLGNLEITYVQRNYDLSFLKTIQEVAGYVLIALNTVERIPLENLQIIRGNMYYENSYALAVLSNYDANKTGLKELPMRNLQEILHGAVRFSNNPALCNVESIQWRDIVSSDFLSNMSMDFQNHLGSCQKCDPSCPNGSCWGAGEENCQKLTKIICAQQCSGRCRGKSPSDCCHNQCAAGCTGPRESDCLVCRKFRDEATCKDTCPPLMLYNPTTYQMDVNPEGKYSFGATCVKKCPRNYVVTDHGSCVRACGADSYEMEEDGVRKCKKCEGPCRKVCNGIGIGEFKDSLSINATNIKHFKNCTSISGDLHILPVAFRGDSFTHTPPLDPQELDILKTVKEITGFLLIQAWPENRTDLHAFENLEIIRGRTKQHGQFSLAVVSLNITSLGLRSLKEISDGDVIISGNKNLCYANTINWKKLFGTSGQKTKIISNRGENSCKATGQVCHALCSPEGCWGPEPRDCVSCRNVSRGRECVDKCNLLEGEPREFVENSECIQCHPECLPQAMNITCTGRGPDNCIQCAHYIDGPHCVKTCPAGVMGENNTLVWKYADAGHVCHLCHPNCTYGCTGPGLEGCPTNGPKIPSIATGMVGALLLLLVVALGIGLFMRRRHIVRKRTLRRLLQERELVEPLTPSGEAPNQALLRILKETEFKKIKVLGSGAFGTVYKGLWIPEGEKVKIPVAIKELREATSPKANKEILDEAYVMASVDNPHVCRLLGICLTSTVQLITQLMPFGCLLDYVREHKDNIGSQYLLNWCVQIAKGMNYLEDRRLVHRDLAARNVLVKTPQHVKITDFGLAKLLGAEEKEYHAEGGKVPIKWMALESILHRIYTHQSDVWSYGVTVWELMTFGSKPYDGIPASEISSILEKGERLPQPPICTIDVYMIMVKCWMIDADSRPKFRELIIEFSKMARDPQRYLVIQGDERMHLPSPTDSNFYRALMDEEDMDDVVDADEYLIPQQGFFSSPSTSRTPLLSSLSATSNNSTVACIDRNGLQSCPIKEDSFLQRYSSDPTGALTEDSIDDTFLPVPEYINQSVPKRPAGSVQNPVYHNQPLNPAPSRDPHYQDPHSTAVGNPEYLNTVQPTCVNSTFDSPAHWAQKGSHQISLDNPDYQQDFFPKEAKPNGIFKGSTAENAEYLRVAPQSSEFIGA

CCN1CCN(C(=O)c2ccc(Nc3ncc(F)c(-c4ccc5nc(N(C)C)sc5c4)n3)nc2)CC1 [YK-2-69]
% Enzyme Activity (relative to DMSO controls) [1]: 101.30% and 99.93%
% Enzyme Activity (relative to DMSO controls) [2]: 97.88% and 97.48%
% Enzyme Activity (relative to DMSO controls) [3]: 109.51% and 108.13%
remaining activity at 1 µM [4]: 71.7%
remaining activity at 1 µM [5]: 77%
remaining activity at 1 µM [6]: 112%
% Enzyme Activity (relative to DMSO controls) [7]: 98.88% and 95.73%
remaining activity at 1 µM [8]: 74.5%
remaining activity at 1 µM ([9]; kinase CDK5/P25): 92.2%
remaining activity at 1 µM ([9]; kinase CDK5/p35): 90%
remaining activity at 1 µM [10]: 85.7%
remaining activity at 1 µM [11]: 99.7%
remaining activity at 1 µM [12]: 92.8%
remaining activity at 1 µM [13]: 92.2%
remaining activity at 1 µM [14]: 101%
% Enzyme Activity (relative to DMSO controls) [15]: 96.94% and 93.55%
remaining activity at 1 µM [16]: 94.3%
remaining activity at 1 µM [17]: 99%
remaining activity at 1 µM [18]: 98.3%
remaining activity at 1 µM [19]: 80.7%
% Enzyme Activity (relative to DMSO controls) [20]: 87.21% and 86.27%
remaining activity at 1 µM [21]: 98.4%
remaining activity at 1 µM [22]: 113%
